Test system: isolated microspores of vegetable fennel (VF-2)
Assay: Isolated microspore culture of fennel with EBR in the medium (embryo formation)
Assay type: cell-based, fennel (Foeniculum vulgare)
Conditions: FIG. 5
Protocol: FIG. 5. Effect of 24-Epibrassinolide on microspore embryogenesis of vegetable fennel (VF-2). A=NLN-25; B=NLN-25+0.1 mM EBR; C=NLN-25+1.0 mM EBR; D=NLN-25 changed to NLN-10; E=NLN-25+0.1 mM EBR changed to NLN-10; and F=NLN-25+1.0 mM EBR changed to NLN-10.
Several basal media were compared for fennel microspore embryogenesis. Donor plants for microspore culture were grown as described herein. Flower buds were measured and buds in the range of 1-3 mm were put into Lipshaw baskets. The Lipshaw baskets were immersed for one minute in 70% ethanol in a sterile beaker and placed on a shaker. After one minute, the ethanol was removed and the baskets containing the buds were rinsed with sterile water. The Lipshaw baskets were immersed for 15 min in 6% sodium hypochlorite in a sterile beaker placed on a shaker. After 15 min, the sodium hypochlorite was removed by three 5-min washes with sterile water. The buds were removed from the Lipshaw baskets with sterile forceps and placed in a mortar with 5 mL of half-strength Gamborg B5 medium with 13% sucrose. The buds were gently crushed with a pestle, and the resulting suspension was filtered through a 44 μm nylon screen cloth into a 50 mL sterile centrifuge tube. The mortar and filter were rinsed three times with 5 mL of half-strength B5-13 which was filtered and added to the suspension to a total of 20 mL. […]

CC(C)[C@@H](C)[C@@H](O)[C@H](O)[C@@H](C)[C@H]1CC[C@H]2[C@@H]3COC(=O)[C@H]4C[C@H](O)[C@H](O)C[C@]4(C)[C@H]3CC[C@]12C [24 EBR, 24-epibrassinolide]
fennel embryo formation (microspore embryogenesis) (continued exposure to EBR, NLN-25 medium, 32° C. for 3 days then 24° C.): somewhat inhibitory | fennel embryo formation (microspore embryogenesis) (media change after 72 h to a lower sucrose concentration and removal of the EBR): stimulatory

From patent publication US7923248B2, “Methods for producing microspore derived doubled haploid apiaceae” (NRC, priority 2005, dated 2011)
